Calls of active or inactive are those of the source.
Assays:
[1] = biological target: T1, Microphthalmia-associated transcription factor (Homo sapiens, UniProt O75030); test: reducers of TRPM1 reporter luminescence, concentration series – cell-based, SK-MEL-5, cherry-picked, set 3, MITF inhibitor project, dose response (AID 493073); format: functional;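 also: SK-MEL-5 melanoma cells with luciferase driven by the MITF target TRPM1 promoter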
T1 sequence (O75030 whole entry): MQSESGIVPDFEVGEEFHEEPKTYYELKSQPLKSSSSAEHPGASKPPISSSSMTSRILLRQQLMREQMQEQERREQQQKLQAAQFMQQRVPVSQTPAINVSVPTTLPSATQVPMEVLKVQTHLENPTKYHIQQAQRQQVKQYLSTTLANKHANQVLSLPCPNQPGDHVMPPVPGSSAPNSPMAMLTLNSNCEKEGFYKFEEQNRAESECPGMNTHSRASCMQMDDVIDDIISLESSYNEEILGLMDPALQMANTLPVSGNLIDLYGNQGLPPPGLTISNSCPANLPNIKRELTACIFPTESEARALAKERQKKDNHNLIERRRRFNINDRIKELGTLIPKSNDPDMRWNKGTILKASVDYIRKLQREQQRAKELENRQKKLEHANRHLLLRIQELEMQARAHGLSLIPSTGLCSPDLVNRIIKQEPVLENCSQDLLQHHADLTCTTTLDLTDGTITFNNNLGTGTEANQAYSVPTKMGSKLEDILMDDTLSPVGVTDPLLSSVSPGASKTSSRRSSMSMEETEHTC

[2] = biological target: T2, Replicative DNA helicase DnaB (Mycobacterium tuberculosis, UniProt P9WMR3); test: DnaB intein splicing inhibitors, dose response, biochemical, cell-free fluorescence (AID 449749); format: functional
T2 sequence (P9WMR3 whole entry): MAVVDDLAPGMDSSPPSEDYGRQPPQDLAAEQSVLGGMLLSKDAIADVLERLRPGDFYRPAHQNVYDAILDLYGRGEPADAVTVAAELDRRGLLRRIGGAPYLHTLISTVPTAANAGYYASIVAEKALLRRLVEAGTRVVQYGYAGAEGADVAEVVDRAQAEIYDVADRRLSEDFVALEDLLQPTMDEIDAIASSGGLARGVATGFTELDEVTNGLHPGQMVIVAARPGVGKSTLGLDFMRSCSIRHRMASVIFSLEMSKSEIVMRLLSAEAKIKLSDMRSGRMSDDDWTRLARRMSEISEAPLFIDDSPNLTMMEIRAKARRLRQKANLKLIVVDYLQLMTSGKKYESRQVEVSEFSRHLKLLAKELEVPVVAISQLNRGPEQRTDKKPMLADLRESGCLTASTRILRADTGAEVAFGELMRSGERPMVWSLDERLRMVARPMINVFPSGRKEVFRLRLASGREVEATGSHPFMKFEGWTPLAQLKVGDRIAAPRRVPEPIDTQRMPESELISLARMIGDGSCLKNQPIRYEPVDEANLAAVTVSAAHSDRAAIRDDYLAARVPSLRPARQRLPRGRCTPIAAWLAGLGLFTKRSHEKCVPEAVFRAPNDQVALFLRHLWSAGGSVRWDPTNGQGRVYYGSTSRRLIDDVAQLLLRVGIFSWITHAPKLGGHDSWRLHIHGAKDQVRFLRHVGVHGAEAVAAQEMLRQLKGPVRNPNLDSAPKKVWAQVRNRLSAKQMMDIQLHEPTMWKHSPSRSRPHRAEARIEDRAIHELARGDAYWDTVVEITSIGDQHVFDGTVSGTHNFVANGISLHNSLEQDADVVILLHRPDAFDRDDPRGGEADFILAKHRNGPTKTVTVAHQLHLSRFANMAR

Structure (SMILES) | AC50 [1] | AC50 [2]
N#Cc1c(NC(=O)CSc2nc[nH]n2)sc2c1CCCCC2 | 0.371 µM (active) | –
COc1ccc(C(N)c2nccc3cc(OC)c(OC)cc23)cc1OC (configuration not stated) | – | > 380 µM (inactive)
